Measured values from patent US20060035365A1, “Method for identifying cellular growth inhibitors” (priority 2002, published 2006).

How the values were obtained:
[1] = tested on: S. aureus strain SafabF/GFP; test: Liquid GFP reporter assay for fabF antisense revertants (Relative Fluorescence Index); assay type: cell-based, Staphylococcus aureus; details: for change of RFI with increasing xylose concentration: 0, 7 and 14 mM xylose, drug concentrations approximating 50% inhibition of growth in no-xylose cells, 16 hours
Source text: The green fluorescent protein (GFP) reporter gene was used to identify fabF antisense revertants in liquid culture by the following method: S. aureus containing a plasmid encoding the antisense fabF DNA was used to develop an inducible GFP reporter system, where the GFP gene is transcriptionally silent until the fabF antisense containing plasmid DNA is deleted or rearranged. A plasmid, pM310, was constructed that consists of the fabF antisense vector (Forsyth et al, 2002), with a tetracycline repressor gene and its promoter (Geissendorfer et al., Appl. Microbiol. Biotechnol 1990, 33: 657-663) inserted downstream of the fabP antisense DNA. A second plasmid, pM302, was constructed that consists of the E. coli vector pUC19 (Gibco BRL) joined to the S. aureus vector pUB110 (ATCC 37015), through the EcoR1 and AatII restriction sites. At the pUC19 multicloning site, a GFP gene was inserted into the BamH1 and SalI restriction sites and a tetracycline operator containing promoter (Geissendorfer et al, 1990) was cloned into the EcoR1 and BamH1 sites. A S. aureus strain, SafabF/GFP, was constructed that contained both plasmids pM310 and pM302 and was resistant to chloramphenicol and kanamycin. SafabF/GFP was sensitive to xylose induction resulting in an increased sensitivity to cerulenin. In the presence of cerulenin, resistant revertants will be selected for, which have deleted the antisense vector, and along with this deletion, lost the tetracycline repressor gene. […] Revertants can be measured as a function of fluorescent readout relative to cell number.
To quantitatively measure the fabF revertants, a liquid assay was developed, where various concentrations of xylose were tested with various concentrations of the following test compounds: cerulenin, thiostrepton and ampicillin. […] A 96-well plate was used to measure growth of the culture and final absorbance after 16 hours of incubation at 37° C. […] The final absorbance as read at 590 nm (A590) and fluorescence of the GFP was measured by excitation at 485 nm wavelength and emission wavelength at 535 nm (E535), using a Tecan Spectrafluor Plus.
To detect a specific GFP response in the presence of a fabF selective inhibitor, cerulenin, the Relative Fluorescence Index (RFI) was calculated for each drug treatment and for each xylose treatment. The RFI is defined as E535/A590 ratio, normalized to the corresponding ratio calculated on no-xylose control cells within each drug test group. For instance, with 15 μg/ml cerulenin treatment, the E535/A590 ratio was calculated for 0, 7 and 14 mM xylose treated cells, and the ratio for each were divided by the E535/A590 ratio from the no-xylose treated cells. […]

[2] = tested on: S. aureus containing S1-1941, a plasmid expressing a xylose-inducible fabF anti-sense RNA; test: Agar assay for fabF-acting substances: revertant colonies in the zone of inhibition; assay type: cell-based, Staphylococcus aureus; details: for appearance of revertant colonies / zone of growth inhibition on assay plate: 10 μL sample per well, thiotetramycin 1 mg/mL in DMSO, cerulenin 20 μg/mL in DMSO, kanamycin 100 μg/mL in water, xylose 23.6 mM, overnight 37° C., visual inspection
Description: S. aureus containing S1-1941, a plasmid expressing a xylose-inducible fabF anti-sense RNA (described in WO 00/44906 and in Forsyth et al., Mole. Microbiol. 2002, 43: 1387-1400), are inoculated into an LB broth culture medium supplemented with […] of chloramphenicol, and grown overnight at 37° C. with shaking (225 rpm). The culture is then diluted in the LB medium to a final optical density (λ=600 nm) of 0.3. Diluted cells (750 μL) are then added to a molten LB-agar medium (30 mL) supplemented with xylose (23.6 mM) and glucose (0.19 g/100 mL) and equilibrated at 48° C. The molten mixture is briefly mixed and is then poured onto sterile disposable polystyrene 86×128 mm dishes (NUNC Cat. No. 242811), after which a TSP (=transferable solid phase screening system) casting tray (NUNC Cat. No. 445497) is placed on top to cast wells. The dishes are allowed to cool down to room temperature for about 15 minutes and are then stored for no more than 2 days at 4° C. until ready for sample dispensing. Samples (10 μL) of one or more test substances (500 μM) and samples of controls, each dissolved in 100% DMSO, are subsequently dispensed into wells and the plates incubated overnight at 37° C. The incubated plates are then inspected visually for the appearance of revertant colonies to determine whether the test substance(s) act at the fabF protein.
The fabF-targeting control will produce revertant colonies in and around a zone of inhibition, and the non-fabF targeting control will produce a clear zone of inhibition (i.e., devoid of revertant colonies). The zones of inhibition of the test substances are compared to those of the controls to screen for fabF-acting substances.
The assay protocol set forth in Part A was employed to test whether thiotetramycin is a fabF-acting antibacterial agent. A 10 μL sample of thiotetramycin dissolved in 100% DMSO (1 mg/mL) was dispensed into one well of the plate. In addition, a 10 μL sample of cerulenin in 100% DMSO (20 μg/mL) and a 10 μL sample of kanamycin in water (100 μg/mL) were respectively dispensed into two wells as controls. After incubation as described in Part A, the plates were inspected visually for zones of bacterial growth.

| Compound | change of RFI with increasing xylose concentration [1] | appearance of revertant colonies / zone of growth inhibition on assay plate [2] | appearance of revertant colonies / zone of growth inhibition on assay plate ([2]; listed as Cerulenin) | maximum change of Relative Fluorescence Index (RFI) ([1]; 14 mM xylose and 15 μg/ml cerulenin, 16 hours at 37° C., normalized to no-xylose control cells) [fold] | appearance of revertant colonies / zone of growth inhibition on assay plate ([2]; listed as Thiotetramycin) | conclusion whether test substance is a fabF-acting antibacterial agent ([2]; from comparison with cerulenin and kanamycin controls) |
| --- | --- | --- | --- | --- | --- | --- |
| CC1(C)S[C@@H]2[C@H](NC(=O)[C@H](N)c3ccccc3)C(=O)N2[C@H]1C(=O)O [ampicillin] | No increase in RFI | – | – | – | – | – |
| C/C=C/C/C=C/CCC(=O)[C@H]1O[C@H]1C(N)=O [cerulenin] | RFI increased with increasing xylose concentration | several visually observable revertant bacterial colonies | growth of revertant colonies in and around a zone of growth inhibition | 9 | – | – |
| C=C(NC(=O)C(=C)NC(=O)c1csc(C2=N[C@@H]3c4csc(n4)[C@H]4NC(=O)c5csc(n5)[C@H]([C@](C)(O)[C@@H](C)O)NC(=O)[C@H]5CSC(=N5)/C(=C/C)NC(=O)[C@H]([C@@H](C)O)NC(=O)c5csc(n5)[C@]3(CC2)NC(=O)[C@H](C)NC(=O)C(=C)NC(=O)[C@H](C)NC(=O)[C@H]([C@@H](C)CC)N[C@@H]2C=Cc3c([C@H](C)O)cc(nc3[C@H]2O)C(=O)O[C@@H]4C)n1)C(N)=O [thiostrepton] | No increase in RFI | – | – | – | – | – |
| thiotetramycin | – | several visually observable revertant bacterial colonies | – | – | growth of revertant colonies which appear as small white foci of growth in and around a zone of growth inhibition | selectively targets the fabF protein |
